In publication PMC10692721, “Drug discovery for heart failure targeting myosin-binding protein C” (The Journal of Biological Chemistry, 2023):
“Also recorded” adds a separate entry of the source.

Legend:
[1] = system: TMR-cC0-C2; test: Selleck library HTS, 532 nm excitation (FLT of TMR-cC0-C2 in presence of FMAL-actin); assay type: binding, human
[2] = system: bovine cardiac (left ventricular) myofibrils; test: Cardiac myofibril ATPase assay; assay type: biochemical; settings: 50 μM compound; for effect on cardiac MF ATPase activity (in words): pCa 8 to pCa 4
Protocol: Rabbit psoas and bovine cardiac myofibrils were prepared as described in our previous study ([17]). An enzyme-coupled, NADH-linked ATPase assay was used to measure skeletal and cardiac myofibril ATPase activity in 96-well microplates at 23 °C. Ionic strength was maintained below 0.2 M, so myofilaments remained insoluble and stable ([32]). To achieve optimal enzymatic activities, buffers for skeletal and cardiac myofibrils differed slightly ([33], [34]): skeletal in 50 mM MOPS, 100 mM KCl, 5 mM MgCl2, 1 mM EGTA, pH 7.0; cardiac in 20 mM MOPS, 35 mM NaCl, 5 mM MgCl2, 1 mM EGTA, pH 7.0. Each well in the microplate contained an assay mix of 0.84 mM phosphoenolpyruvate, 0.17 mM NADH, 10 U/vol pyruvate kinase, 20 U/vol lactate dehydrogenase. The concentration of free Ca^2+ was controlled by EGTA buffering ([35]). Myofibrils were dispensed in microplates with a multichannel pipette and were incubated with assay mix plus compound of interest for 20 min at 23 °C. The concentration of myofibrils used was 0.01 mg/ml for skeletal and 0.05 mg/ml for cardiac myofibrils. The assay was started upon the addition of ATP, at a final concentration of 2.1 mM (total volume to 200 μl), and absorbance was recorded at 340 nm in a SpectraMax Plus microplate spectrophotometer from Molecular Devices. The steady-state myofibrillar ATPase rate was measured from NADH oxidation, measured as the rate of decrease in absorption at 340 nm for 30 min, with absorption data collected every 15 s. All data and statistical analysis of steady-state kinetics were conducted with the OriginPro program. The results were fitted with the Hill equation:(6) […] is the ATPase rate and n is the Hill coefficient. ATPase activity is reported on the μmol ATP/mg protein/min scale. Average data are presented as mean ± SD. Sample means are derived from three different myofibril preps (N = 3), each done in duplicate (n = 6). The effects of compounds on ATPase activity of myofibrils were determined in the presence of 50 μM compound, across a 12-point pCa range from 4.0 (activation) to 8.0 (relaxation). The calcium sensitivity (pCa50) was determined by fitting the curves to the Hill equation. […] The normalized ATPase activity of the selected compounds can be found in Figure 6.

[3] = system: TMR-cC0-C2 (C0-C2 fragment of human cMyBP-C); test: FLT-TMR concentration-response assay (FLT of TMR on cC0-C2, no actin); assay type: binding; settings: 60 μM compound
Method in brief: (§1)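 Hits tested at eight concentrations (0.5–100 μM) and read on a high-throughput fluorescence lifetime plate reader. Hill fits applied only under certain conditions.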

[4] = system: FMAL-actin/TMR-cC0-C2 interaction; test: FLT-FRET concentration-response assay, FMAL-actin plus TMR-cC0-C2; assay type: binding, human; settings: unphosphorylated cC0-C2
Method in brief: as §1

[5] = system: TMR-fC1-C2 (C1-C2 of fast skeletal MyBP-C); test: FLT-TMR concentration-response assay, fC1-C2; assay type: binding; settings: 60 μM compound
Method in brief: as §1

[6] = system: rabbit fast skeletal (psoas) myofibrils; test: Skeletal myofibril ATPase assay; assay type: biochemical; settings: 50 μM compound; for effect on skeletal MF ATPase activity (in words): pCa 8 to pCa 4
Protocol: Rabbit psoas and bovine cardiac myofibrils were prepared as described in our previous study ([17]). An enzyme-coupled, NADH-linked ATPase assay was used to measure skeletal and cardiac myofibril ATPase activity in 96-well microplates at 23 °C. Ionic strength was maintained below 0.2 M, so myofilaments remained insoluble and stable ([32]). To achieve optimal enzymatic activities, buffers for skeletal and cardiac myofibrils differed slightly ([33], [34]): skeletal in 50 mM MOPS, 100 mM KCl, 5 mM MgCl2, 1 mM EGTA, pH 7.0; cardiac in 20 mM MOPS, 35 mM NaCl, 5 mM MgCl2, 1 mM EGTA, pH 7.0. Each well in the microplate contained an assay mix of 0.84 mM phosphoenolpyruvate, 0.17 mM NADH, 10 U/vol pyruvate kinase, 20 U/vol lactate dehydrogenase. The concentration of free Ca^2+ was controlled by EGTA buffering ([35]). Myofibrils were dispensed in microplates with a multichannel pipette and were incubated with assay mix plus compound of interest for 20 min at 23 °C. The concentration of myofibrils used was 0.01 mg/ml for skeletal and 0.05 mg/ml for cardiac myofibrils. The assay was started upon the addition of ATP, at a final concentration of 2.1 mM (total volume to 200 μl), and absorbance was recorded at 340 nm in a SpectraMax Plus microplate spectrophotometer from Molecular Devices. The steady-state myofibrillar ATPase rate was measured from NADH oxidation, measured as the rate of decrease in absorption at 340 nm for 30 min, with absorption data collected every 15 s. All data and statistical analysis of steady-state kinetics were conducted with the OriginPro program. The results were fitted with the Hill equation:(6) V=V0+(Vmax/1+10^−n∗^(pCa50−pCa)) where V is the ATPase rate and n is the Hill coefficient.
ATPase activity is reported on the μmol ATP/mg protein/min scale. Average data are presented as mean ± SD. Sample means are derived from three different myofibril preps (N = 3), each done in duplicate (n = 6).
The effects of compounds on ATPase activity of myofibrils were determined in the presence of 50 μM compound, across a 12-point pCa range from 4.0 (activation) to 8.0 (relaxation). The calcium sensitivity (pCa50) was determined by fitting the curves to the Hill equation. In all experiments, a 1% DMSO-only control was included. The normalized ATPase activity of the selected compounds can be found in Figure 6.

[7] = system: PKA-phosphorylated TMR-cC0-C2 (cC0-C2#P); test: FLT-TMR concentration-response assay, PKA-phosphorylated cC0-C2; assay type: binding, human; settings: 60 μM compound
Method in brief: as §1

[8] = system: FMAL-actin plus TMR-cC0-C2; test: Selleck library HTS, 473 nm excitation (FLT of FMAL-actin with TMR-cC0-C2, FLT-FRET); assay type: binding, human
Method in brief: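 Donor fluorescence lifetime was then recorded. Waveforms were fit to a single exponential, and ΔFLT was obtained after a moving-median plate-gradient correction (half-row window), rescaled by the median DMSO lifetime.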

[9] = system: TMR-MyBP-C (cC0-C2, sC1-C2S, sC1-C2L, fC1-C2); test: Compound effects on TMR-MyBP-C lifetime (Fig. S2); assay type: binding; settings: Suramin 20 µM, NF023 50 µM, ATA 20 µM
Source text: For FLT-TMR experiments, the same samples were excited at 532 nm.
Compound effects on TMR-MyBP-C lifetime. […] All values are the average ± SD. n=5.

[10] = system: fC1-C2 binding to Alexa Fluor 568-actin; test: AF568-actin-MyBP-C FLT binding assay (Fig. S1); settings: Suramin 20 µM, NF023 50 µM, ATA 20 µM
[11] = biological target: actin (Oryctolagus cuniculus) (UniProt P68135); test: cosedimentation; settings: cited from earlier work
[12] = biological target: actin (Oryctolagus cuniculus) (UniProt P68135); test: FLT; settings: cited from earlier work
[13] = biological target: actin (Oryctolagus cuniculus) (UniProt P68135); test: cosedimentation; settings: cited from earlier work; remark: listed apart in the source
[14] = biological target: actin (Oryctolagus cuniculus) (UniProt P68135); test: FLT; settings: cited from earlier work; remark: listed apart in the source
[15] = robust z-score, hit threshold ±4, 30 μM compound

effect on Ca^2+-sensitivity of cardiac MF ATPase (in words) [2]	effect on FLT-FRET / binding between FMAL-actin and TMR-cC0-C2 (in words) [4]	effect on Ca^2+-sensitivity of skeletal MF ATPase (in words) [6]	effect on binding of fC1-C2 (2 µM) to Alexa Fluor 568-actin (1 µM) (in words) [10]	Compound	effect on cardiac MF ATPase activity (in words) [2]	effect on skeletal MF ATPase activity (in words) [6]	effect on FLT of TMR-MyBP-C, all MyBP-C isoforms (in words) [9]	further results
affected	–	–	decreased the binding	O=C(Nc1cccc(C(=O)Nc2ccc(S(=O)(=O)O)c3cc(S(=O)(=O)O)cc(S(=O)(=O)O)c23)c1)Nc1cccc(C(=O)Nc2ccc(S(=O)(=O)O)c3cc(S(=O)(=O)O)cc(S(=O)(=O)O)c23)c1 [NF023]	affected	–	increased	–
–	–	–	decreased the binding	O=C(O)C1=CC(=C(c2ccc(O)c(C(=O)O)c2)c2ccc(O)c(C(=O)O)c2)C=CC1=O [ATA, Aurintricarboxylic acid]	–	–	decreased	–
–	–	–	–	cardiac MyBP-C C0-C2 (from UniProt Q14896)	–	–	–	Kd [11]: 4.3 µM; Kd [12]: 19 µM; Kd [13]: 6.5 µM; Kd [14]: 2.5 µM
eliminated the Ca^2+-sensitivity	eliminates binding	eliminated the Ca^2+-sensitivity	decreased the binding	Cc1ccc(C(=O)Nc2ccc(S(=O)(=O)O)c3cc(S(=O)(=O)O)cc(S(=O)(=O)O)c23)cc1NC(=O)c1cccc(NC(=O)Nc2cccc(C(=O)Nc3cc(C(=O)Nc4ccc(S(=O)(=O)O)c5cc(S(=O)(=O)O)cc(S(=O)(=O)O)c45)ccc3C)c2)c1 [Suramin]	remained at levels similar to those at low Ca^2+; also recorded: strongest effect	showed activation at low Ca^2+; also recorded: strongest effect	increased	–

Compound	effect on Ca^2+-sensitivity of cardiac MF ATPase (in words) [2]	effect on FLT-FRET / binding between FMAL-actin and TMR-cC0-C2 (in words) [4]	effect on Ca^2+-sensitivity of skeletal MF ATPase (in words) [6]	effect on binding of fC1-C2 (2 µM) to Alexa Fluor 568-actin (1 µM) (in words) [10]	effect on cardiac MF ATPase activity (in words) [2]	effect on skeletal MF ATPase activity (in words) [6]	effect on FLT of TMR-MyBP-C, all MyBP-C isoforms (in words) [9]	further results
Enoxaparin sodium	significant decrease in Ca^2+-sensitivity	decrease	negligible	–	reduced at high Ca^2+; also recorded: specific for cardiac myofibril ATPase effects	reduced at high Ca^2+	–	532-nm Δτ, Repeat 1 ([1]; initial screen, 30 μM compound): -0.023 ns; 532-nm Δτ, Repeat 2 ([1]; initial screen, 30 μM compound): -0.033 ns; 532-nm z-score (based on avg Δτ) [1, 15]: -1.67; Ca^2+-sensitivity (pCa50) of cardiac MF ATPase in presence of compound ([2]; 5.77 ± 0.03 in the absence of the drug): 5.55 ± 0.03; cC0-C2/cC0-C2#P (ratio of FLT changes) [3]: 0.4; cC0-C2 FLT change (% change from DMSO, FLT of TMR-MyBP-C) [3]: 3.1%; cC0-C2/fC1-C2 (ratio of FLT changes) [5]: 1.1; fC1-C2 FLT change (% change from DMSO, FLT of TMR-MyBP-C) [5]: 2.8%; cC0-C2#P FLT change (% change from DMSO, FLT of TMR-MyBP-C) [7]: 6.9%; 473-nm Δτ, Repeat 1 ([8]; initial screen, 30 μM compound): 0.190 ns; 473-nm Δτ, Repeat 2 ([8]; initial screen, 30 μM compound): 0.190 ns; 473-nm z-score (based on avg Δτ) [8, 15]: 10.68
